Results published in patent US8580806B2, “Salts of 4-methyl N-[3-(4-methyl-imidazol-1-yl)-5-trifluoromethyl-phenyl]-3-(4-pyridin-3-yl-pyrimidin-2-ylamino)-benzamide” (Novartis AG, priority 2005, dated 2013).
Where a name gives a salt, the structure may show the parent alone.

Legend:
Format in all cases: physicochemical
[1] = pH of 1% solution or suspension in water; details: 1% in water
[2] = Solid state stability: heat, humidity, xenon light (Table 15)
[3] = Hygroscopicity by TGA after one day at ambient temperature and 93% relative humidity; details: ambient temperature, listed as Hydrochloride (form B)
Protocol: The hygroscopicity of the salts of the invention was determined by TGA after one day at ambient temperature and 93% relative humidity.

[4] = Decomposition temperature by TGA; details: as stated in the description of the embodiments; listed as hydrochloride salt
Protocol: The LOD and decomposition temperature of the salts of the invention were determined by TGA, and the melting point was determined by DSC.

[5] = Stability of solutions or suspensions (Table 15)
[6] = Solid-state behaviour of the hydrochloride salt (equilibration, grinding, compression)
[7] = Hygroscopicity (moisture uptake v. relative humidity); details: when first tested
Protocol: Hygroscopicity: Sorption/desorption isotherms were collected using a Surface Measurements Systems dynamic vapor sorption device (DVS-1). The measurements were carried out at 25° C.

[8] = Intrinsic Dissolution Rate (rotating disk method); details: Water, 37° C., 200 rpm
Protocol: Intrinsic Dissolution Rate (IDR): Dissolution rate measurements were performed at 37° C. using the rotating disk method (VanKell Instrument). A single rotation speed of 200 rpm was used. For IDR in 0.1 N HCl, an 800 mL volume, and for IDE in water, a 200 mL volume were used. The solution was continuously pumped through a UV measuring cell and recycled to the dissolution vessel.

[9] = Bulk corrosivity; details: 2 day, 80% relative humidity with steel coupon
[10] = Solid state, 1 week 80° C., 75% relative humidity, 30% in mixture 1
[11] = Solid state, 1 week 80° C., 75% relative humidity, 30% in mixture 2
[12] = Solid state, 1 week 80° C., 75% relative humidity, Bulk (HPLC)
[13] = Solid state, 1 week 80° C., tight container, 30% in mixture 1
[14] = Solid state, 1 week 80° C., tight container, 30% in mixture 2
[15] = Solid state, 1 week 80° C., tight container, Bulk (HPLC)
[16] = Xenon light (approximately 200 kLuxh), Bulk (HPLC)
[17] = 0.1% solutions or suspensions, 1 week at 80° C., Acetonitrile
[18] = 0.1% solutions or suspensions, 1 week at 80° C., Ethanol
[19] = 0.1% solutions or suspensions, 1 week at 80° C., Methanol
[20] = 0.1% solutions or suspensions, 1 week at 80° C., Water (pH measured: 4.74; pH measured for HCl salt: 4.22)
[21] = 0.1% solutions or suspensions, 1 week at 80° C., pH 1 (pH measured: 1.26)
[22] = 0.1% solutions or suspensions, 1 week at 80° C., pH 2 (pH measured: 2.00)
[23] = 0.1% solutions or suspensions, 1 week at 80° C., pH 3 (pH measured: 2.94)
[24] = 0.1% solutions or suspensions, 1 week at 80° C., pH 5 (pH measured: 5.01)
[25] = 0.1% solutions or suspensions, 1 week at 80° C., pH 7 (pH measured: 6.02)
[26] = 0.1% solutions or suspensions, 1 week at 80° C., pH 9 (pH measured: 8.92)
[27] = 0.1% solutions or suspensions, 1 week at 80° C., pH 11 (pH measured: 10.86)
[28] = 0.1% solutions or suspensions, PH 1, 1 week @ 50° C.
[29] = 2% solutions or suspensions, 1 day at room temperature, 0.5% CMC
[30] = 2% solutions or suspensions, 1 day at room temperature, 0.5% HPMC cellulose 4000
[31] = 2% solutions or suspensions, 1 day at room temperature, 0.8% Tween 80
[32] = 5% solutions in DMSO, 1 day at room temperature, 1:100 dilution in pH 6.8 buffer

SMILES: Cc1cn(-c2cc(NC(=O)c3ccc(C)c(Nc4nccc(-c5cccnc5)n4)c3)cc(C(F)(F)F)c2)cn1 [Hydrochloride monohydrate (form B), 4-methyl-N-[3-(4-methyl-imidazol-1-yl)-5-trifluoromethyl-phenyl]-3-(4-pyridin-3-yl-pyrimidin-2-ylamino)-benzamide monohydrochloride monohydrate salt]
- pH of 1% solution or suspension in water [1]: 2.53
- Bulk (XRPD) ([2]; Solid state, 1 week 80° C., 75% relative humidity): No change
- Assay [2, 10]: 100.88
- Assay [% area]: bracketed % area [2, 10]: 100.00 % area
- Assay [2, 11]: 92.17
- Assay [% area]: bracketed % area [2, 11]: 97.99 % area
- Assay [2, 12]: 100.71
- Assay [% area]: bracketed % area [2, 12]: 100.00 % area
- Bulk (XRPD) ([2]; Solid state, 1 week 80° C., tight container): No change
- Assay [2, 13]: 101.23
- Assay [% area]: bracketed % area [2, 13]: 100.00 % area
- Assay [2, 14]: 93.43
- Assay [% area]: bracketed % area [2, 14]: 97.82 % area
- Assay [2, 15]: 100.77
- Assay [% area]: bracketed % area [2, 15]: 100.00 % area
- Bulk (XRPD) ([2]; Xenon light (approximately 200 kLuxh)): No change
- Assay [2, 16]: 99.73
- Assay [% area]: bracketed % area [2, 16]: 100.00 % area
- % moisture gain [3]: 0.20%
- decomposes at [4]: about 173 °C
- Appearance [5, 17]: B↓
- Assay [5, 17]: 100.33
- Assay [% area]: bracketed % area [5, 17]: 100.00 % area
- Appearance [5, 18]: A*
- Assay [5, 18]: 100.41
- Assay [% area]: bracketed % area [5, 18]: 100.00 % area
- Appearance [5, 19]: A*
- Assay [5, 19]: 99.169
- Assay [% area]: bracketed % area [5, 19]: 98.72 % area
- Appearance [5, 20]: A↓
- Assay [5, 20]: 101.43
- Assay [% area]: bracketed % area [5, 20]: 100.00 % area
- Appearance [5, 21]: A*
- Assay [5, 21]: 46.68
- Assay [% area]: bracketed % area [5, 21]: 42.93 % area
- Appearance [5, 22]: B↓
- Assay [5, 22]: 91.77
- Assay [% area]: bracketed % area [5, 22]: 91.61 % area
- Appearance [5, 23]: B↓
- Assay [5, 23]: 98.84
- Assay [% area]: bracketed % area [5, 23]: 100.00 % area
- Appearance [5, 24]: A↓
- Assay [5, 24]: 100.02
- Assay [% area]: bracketed % area [5, 24]: 100.00 % area
- Appearance [5, 25]: B↓
- Assay [5, 25]: 99.56
- Assay [% area]: bracketed % area [5, 25]: 100.00 % area
- Appearance [5, 26]: B↓
- Assay [5, 26]: 101.19
- Assay [% area]: bracketed % area [5, 26]: 100.00 % area
- Appearance [5, 27]: B↓
- Assay [5, 27]: 102.19
- Assay [% area]: bracketed % area [5, 27]: 100.00 % area
- Appearance [5, 28]: A*
- Assay [5, 28]: 94.14
- Assay [% area]: bracketed % area [5, 28]: 93.21 % area
- Appearance [5, 29]: A↓
- Assay [5, 29]: 103.06
- Assay [% area]: bracketed % area [5, 29]: 100.00 % area
- Appearance [5, 30]: A↓
- Assay [5, 30]: 100.44
- Assay [% area]: bracketed % area [5, 30]: 100.00 % area
- Appearance [5, 31]: A↓
- Assay [5, 31]: 102.42
- Assay [% area]: bracketed % area [5, 31]: 100.00 % area
- Appearance [5, 32]: A↓
- Assay [5, 32]: 101.85
- Assay [% area]: bracketed % area [5, 32]: 100.00 % area
- Assay ([5]; Unstressed): 99.10
- Assay [% area]: bracketed % area ([5]; Unstressed): 100.00 % area
- behaviour upon compression ([6]; compression): can withstand compression
- behaviour upon grinding ([6]; grinding): becomes amorphous
- moisture uptake ([7]; 60% relative humidity): up to 2%
- moisture uptake ([7]; 95% relative humidity): up to 2.7%
- Intrinsic dissolution rate [8]: 0.0024 mg min^−1 cm^−2
- Bulk corrosivity [9]: No change
